Results reported in patent publication US20150252370A1, “USE OF ATX INHIBITORS FOR TREATMENT OR PREVENTION OF INFLUENZA VIRUS A INFECTIONS” (Academia Sinica, priority 2014, published 2015).
Entries after “also recorded” stand apart in the source; their conditions may differ.

Assays:
[1] = system: metastatic breast cancer; conditions: mouse models of metastatic breast cancer; cited from earlier work
[2] = system: Influenza A virus (IAV) (A/WSN/33, H1N1); format: cell-based
[3] = molecular target: T1, human AXL (Homo sapiens, UniProt P30530); format: cell-based
T1 construct: Human AXL (NM_021913.4) were PCR amplified using the primers human AXL forward; expressed in transfected cells
T1 sequence (P30530 26-894): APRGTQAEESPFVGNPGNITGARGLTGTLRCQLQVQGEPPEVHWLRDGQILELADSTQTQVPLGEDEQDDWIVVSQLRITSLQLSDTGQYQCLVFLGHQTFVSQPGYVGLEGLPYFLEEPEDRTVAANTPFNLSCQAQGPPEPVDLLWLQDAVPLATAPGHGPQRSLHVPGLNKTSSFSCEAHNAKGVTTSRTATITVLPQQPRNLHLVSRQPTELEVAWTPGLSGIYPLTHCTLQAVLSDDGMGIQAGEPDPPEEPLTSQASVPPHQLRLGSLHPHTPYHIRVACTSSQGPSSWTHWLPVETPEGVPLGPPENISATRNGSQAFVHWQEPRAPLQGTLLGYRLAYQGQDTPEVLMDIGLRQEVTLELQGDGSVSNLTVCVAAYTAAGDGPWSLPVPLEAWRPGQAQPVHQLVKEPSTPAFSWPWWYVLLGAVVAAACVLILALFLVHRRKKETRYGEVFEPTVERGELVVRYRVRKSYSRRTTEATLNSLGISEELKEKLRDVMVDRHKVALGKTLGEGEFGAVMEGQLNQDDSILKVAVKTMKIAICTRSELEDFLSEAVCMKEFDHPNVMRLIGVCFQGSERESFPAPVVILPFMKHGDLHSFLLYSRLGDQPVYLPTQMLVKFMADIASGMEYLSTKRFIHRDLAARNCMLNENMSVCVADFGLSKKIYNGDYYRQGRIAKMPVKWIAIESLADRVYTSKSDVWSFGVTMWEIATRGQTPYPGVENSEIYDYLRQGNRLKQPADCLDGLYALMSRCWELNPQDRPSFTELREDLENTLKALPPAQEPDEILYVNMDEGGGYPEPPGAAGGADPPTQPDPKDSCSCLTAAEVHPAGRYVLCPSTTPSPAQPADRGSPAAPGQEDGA

Nc1nc(Nc2ccc3c(c2)CCC(N2CCCC2)CC3)nn1-c1cc2c(nn1)-c1ccccc1CCC2 (stereo not shown) [R428, 1-(6,7-dihydro-5H-benzo[6,7]cyclohepta[1,2-c]pyridazin-3-yl)-N3-(7-(pyrrolidin-1-yl)-6,7,8,9-tetrahydro-5H-benzo[7]annulen-2-yl)-1H-1,2,4-triazole-3,5-diamine]
tumor spread and survival [1]: block tumor spread and prolong survival
IAV replication (NP and NS1 protein expression) [2]: blocked virus infection; also recorded: significantly inhibited influenza A virus infection; also recorded: inhibited IAV replication
time of addition at which R428 inhibits IAV replication [2]: before or during the first hour, but not later
AXL autophosphorylation stimulated by Gas6 [3]: block autophosphorylation
